Test results taken from US10092570B2 (Incyte Corporation, priority 2011, dated 2018).
Where a name gives a salt, the structure may show the parent alone.

Each compound was assayed on Pfeiffer cell line (diffuse large B cell lymphoma) (assay: Example B2: Pfeiffer cell proliferation assay). Conditions: Homo sapiens, Pfeiffer, Pfeiffer cells, [3H]-thymidine incorporation.
Format: cell-based
Method: Pfeiffer cell line (diffuse large B cell lymphoma) are purchased from ATCC (Manassas, Va.) and maintained in the culture medium recommended (RPMI and 10% FBS). To measure the anti-proliferation activity of the compounds, the Pfeiffer cells are plated with the culture medium (2×10^3 cells/well/per 200 μl) into 96-well ultra-low binding plates (Corning, Corning, N.Y.), in the presence or absence of a concentration range of test compounds. After 3-4 days, [^3H]-thymidine (1 μCi/well) (PerkinElmer, Boston, Mass.) in PBS is then added to the cell culture for an additional 12 hours before the incorporated radioactivity is separated by filtration with water through GF/B filters (Packard Bioscience, Meridenj, Conn.) and measured by liquid scintillation counting with a TopCount (Packard Bioscience).

Row | IC50 [µM] | SMILES
1 | < 0.01 | CCOc1c(C(C)n2nc(C)c3c(N)ncnc32)cc(Cl)c(F)c1C1COC(=O)N1 (single isomer, unassigned) [Example 354, 4-{3-[1-(4-amino-3-methyl-1H-pyrazolo[3,4-d]pyrimidin-1-yl)ethyl]-5-chloro-2-ethoxy-6-fluorophenyl}-1,3-oxazolidin-2-one]
2 | 0.01 to 0.05 | COc1c(C(C)n2nc(C)c3c(N)ncnc32)cc(Cl)c(C)c1C1CN(C(=O)[C@@H](C)O)C1 (single isomer, unassigned) [Example 121, trifluoroacetate]
3 | < 0.01 | CCOc1c(C(C)n2nc(C)c3c(N)ncnc32)cc(Cl)c(C#N)c1C1CNC(=O)C1 (single isomer, unassigned) [Example 349, 4-[1-(4-amino-3-methyl-1H-pyrazolo[3,4-d]pyrimidin-1-yl)ethyl]-6-chloro-3-ethoxy-2-(5-oxopyrrolidin-3-yl)benzonitrile]
4 | < 0.01 | COc1c(C(C)n2nc(C(F)F)c3c(N)ncnc32)cc(Cl)c(F)c1C1CN(C)C1 (racemic) [Example 75, 1-{1-[5-Chloro-4-fluoro-2-methoxy-3-(1-methylazetidin-3-yl)phenyl]ethyl}-3-(difluoromethyl)-1H-pyrazolo[3,4-d]pyrimidin-4-amine]
5 | < 0.01 | COc1c(C(C)n2nc(C)c3c(N)ncnc32)cc(Cl)c(C#N)c1C1CN(C(C)C)C1 (single isomer, unassigned) [Example 264, 4-[1-(4-Amino-3-methyl-1H-pyrazolo[3,4-d]pyrimidin-1-yl)ethyl]-6-chloro-2-(1-isopropylazetidin-3-yl)-3-methoxybenzonitrile]
6 | < 0.01 | CCOc1c(C(C)n2nc(C)c3c(N)ncnc32)cc(Cl)c(F)c1C1CNC(=O)C1 (single isomer, unassigned) [Example 346, 4-{3-[1-(4-amino-3-methyl-1H-pyrazolo[3,4-d]pyrimidin-1-yl)ethyl]-5-chloro-2-ethoxy-6-fluorophenyl}pyrrolidin-2-one]
7 | < 0.01 | CCOc1c(C(C)n2nc(C)c3c(N)ncnc32)cc(Cl)c(C#N)c1C1CN(CCO)C1 (stereo not drawn) [Example 219, 4-[1-(4-Amino-3-methyl-1H-pyrazolo[3,4-d]pyrimidin-1-yl)ethyl]-6-chloro-3-ethoxy-2-[1-(2-hydroxyethyl)azetidin-3-yl]benzonitrile]
8 | < 0.01 | CCOc1c(C(C)n2nc(C)c3c(N)ncnc32)cc(Cl)c(C#N)c1C1CN(S(C)(=O)=O)C1 (single isomer, unassigned) [Example 248, 4-[1-(4-Amino-3-methyl-1H-pyrazolo[3,4-d]pyrimidin-1-yl)ethyl]-6-chloro-3-ethoxy-2-[1-(methylsulfonyl)azetidin-3-yl]benzonitrile]
9 | < 0.01 | CCOc1c(C(C)n2nc(C)c3c(N)ncnc32)cc(Cl)c(C)c1-c1cncc(S(C)(=O)=O)c1 (single isomer, unassigned) [Example 198]
10 | < 0.01 | COc1c(C(C)n2nc(C)c3c(N)ncnc32)cc(Cl)c(Cl)c1C1CN(CCO)C1 (single isomer, unassigned) [Example 300, 2-(3-{3-[1-(4-Amino-3-methyl-1H-pyrazolo[3,4-d]pyrimidin-1-yl)ethyl]-5,6-dichloro-2-methoxyphenyl}azetidin-1-yl)ethano]
11 | < 0.01 | COc1c(C(C)n2nc(C(F)F)c3c(N)ncnc32)cc(Cl)c(C)c1-c1ccc(C(=O)N(C)C)nc1 (stereo not drawn) [Example 191, 5-(3-{1-[4-Amino-3-(difluoromethyl)-1H-pyrazolo[3,4-d]pyrimidin-1-yl]ethyl}-5-chloro-2-methoxy-6-methylphenyl)-N,N-dimethylpyridine-2-carboxamide]
12 | < 0.01 | COc1c(C(C)n2nc(C)c3c(N)ncnc32)cc(Cl)c(C#N)c1-c1ccc(C(=O)N(C)C)nc1 (stereo not drawn) [Example 313, 5-{3-[1-(4-amino-3-methyl-1H-pyrazolo[3,4-d]pyrimidin-1-yl)ethyl]-5-chloro-6-cyano-2-methoxyphenyl}-N,N-dimethylpyridine-2-carboxamide]
13 | < 0.01 | CCOc1c(C(C)n2nc(C)c3c(N)ncnc32)cc(Cl)c(C#N)c1C1CN(C(C)C)C1 (single isomer, unassigned) [Example 215, 4-[1-(4-Amino-3-methyl-1H-pyrazolo[3,4-d]pyrimidin-1-yl)ethyl]-6-chloro-3-ethoxy-2-(1-isopropylazetidin-3-yl)benzonitrile]
14 | < 0.01 | CCOc1c(C(C)n2nc(C)c3c(N)ncnc32)cc(Cl)c(F)c1C1CN(CC(N)=O)C1 (racemic) [Example 148, 2-(3-{3-[1-(4-Amino-3-methyl-1H-pyrazolo[3,4-d]pyrimidin-1-yl)ethyl]-5-chloro-2-ethoxy-6-fluorophenyl}azetidin-1-yl)acetamide]
15 | < 0.01 | CCOc1c(C(C)n2nc(C)c3c(N)ncnc32)cc(C)c(C#N)c1-c1ccc(C(=O)N(C)C)nc1 (stereo not drawn) [Example 314, 5-{3-[1-(4-amino-3-methyl-1H-pyrazolo[3,4-d]pyrimidin-1-yl)ethyl]-6-cyano-2-ethoxy-5-methylphenyl}-N,N-dimethylpyridine-2-carboxamide]
16 | < 0.01 | COc1c(C(C)n2nc(C)c3c(N)ncnc32)cc(Cl)c(C#N)c1C1CN(CC(C)(C)O)C1 (single isomer, unassigned) [Example 271, 4-[1-(4-Amino-3-methyl-1H-pyrazolo[3,4-d]pyrimidin-1-yl)ethyl]-6-chloro-2-[1-(2-hydroxy-2-methylpropyl)azetidin-3-yl]-3-methoxybenzonitrile]
17 | < 0.01 | CCOc1c(C(C)n2nc(C)c3c(N)ncnc32)cc(Cl)c(C#N)c1C1CN(CC)C1 (single isomer, unassigned) [Example 214, 4-[1-(4-Amino-3-methyl-1H-pyrazolo[3,4-d]pyrimidin-1-yl)ethyl]-6-chloro-3-ethoxy-2-(1-ethylazetidin-3-yl)benzonitrile]
18 | < 0.01 | CCOc1c(C(C)n2nc(C)c3c(N)ncnc32)cc(Cl)c(C)c1-c1cncc(C(=O)N(C)C)c1 (single isomer, unassigned) [Example 196, 5-(3-(1-(4-amino-3-methyl-1H-pyrazolo[3,4-d]pyrimidin-1-yl)ethyl)-5-chloro-2-ethoxy-6-methylphenyl)-N,N-dimethylnicotinamide]
19 | < 0.01 | CCOc1c(C(C)n2nc(C(F)F)c3c(N)ncnc32)cc(Cl)c(F)c1C1CN(CCO)C1 (racemic) [Example 152, 2-[3-(3-{1-[4-Amino-3-(difluoromethyl)-1H-pyrazolo[3,4-d]pyrimidin-1-yl]ethyl}-5-chloro-2-ethoxy-6-fluorophenyl)azetidin-1-yl]ethanol]
20 | < 0.01 | CCOc1c(C(C)n2nc(C)c3c(N)ncnc32)cc(Cl)c(C#N)c1C1CN(C(=O)NC)C1 (single isomer, unassigned) [Example 257, 3-{3-[1-(4-Amino-3-methyl-1H-pyrazolo[3,4-d]pyrimidin-1-yl)ethyl]-5-chloro-6-cyano-2-ethoxyphenyl}-N-methylazetidine-1-carboxamide]
21 | < 0.01 | CCOc1c(C(C)n2nc(C)c3c(N)ncnc32)cc(Cl)c(C#N)c1C1CN(CC(C)(C)O)C1 (single isomer, unassigned) [Example 222, 4-[1-(4-Amino-3-methyl-1H-pyrazolo[3,4-d]pyrimidin-1-yl)ethyl]-6-chloro-3-ethoxy-2-[1-(2-hydroxy-2-methylpropyl)azetidin-3-yl]benzonitrile]
22 | < 0.01 | COc1c(C(C)n2nc(C)c3c(N)ncnc32)cc(Cl)c(C)c1-c1cncc(C(=O)N2CC(C#N)C2)c1 (single isomer, unassigned) [Example 177, 1-[(5-{3-[1-(4-amino-3-methyl-1H-pyrazolo[3,4-d]pyrimidin-1-yl)ethyl]-5-chloro-2-methoxy-6-methylphenyl}pyridin-3-yl)carbonyl]azetidine-3-carbonitrile]
23 | < 0.01 | CCOc1c(C(C)n2nc(C)c3c(N)ncnc32)cc(Cl)c(F)c1C1CN(C[C@H](C)O)C1 (stereo partly drawn) [Example 149, (2S)-1-(3-{3-[1-(4-Amino-3-methyl-1H-pyrazolo[3,4-d]pyrimidin-1-yl)ethyl]-5-chloro-2-ethoxy-6-fluorophenyl}azetidin-1-yl)propan-2-ol]
24 | < 0.01 | CCOc1c(C(C)n2nc(C)c3c(N)ncnc32)cc(Cl)c(C)c1-c1ccc(C(=O)N(C)C)nc1 (stereo not drawn) [Example 195, 5-(3-(1-(4-Amino-3-methyl-1H-pyrazolo[3,4-d]pyrimidin-1-yl)ethyl)-5-chloro-2-ethoxy-6-methylphenyl)-N,N-dimethylpicolinamide bis(2,2,2-trifluoroacetate)]

Row | SMILES | IC50 [µM]
25 | COc1c(C(C)n2nc(C)c3c(N)ncnc32)cc(Cl)c(C)c1-c1ccc(C(=O)N(C)C)nc1 (stereo not drawn) [Example 167, 5-(3-(1-(4-Amino-3-methyl-1H-pyrazolo[3,4-d]pyrimidin-1-yl)ethyl)-5-chloro-2-methoxy-6-methylphenyl)-N,N-dimethylpicolinamide bis(2,2,2-trifluoroacetate)] | < 0.01
26 | COc1c(C(C)n2nc(C)c3c(N)ncnc32)cc(Cl)c(C)c1-c1ccnc(C(=O)N(C)C)c1 (stereo not drawn) [Example 200, 4-(3-(1-(4-Amino-3-methyl-1H-pyrazolo[3,4-d]pyrimidin-1-yl)ethyl)-5-chloro-2-methoxy-6-methylphenyl)-N,N-dimethylpicolinamide bis(2,2,2-trifluoroacetate)] | < 0.01

Same assay, conditions: Pfeiffer cells, [3H]-thymidine incorporation

Row | IC50 [µM] | SMILES
27 | < 0.01 | CCOc1c(C(C)n2nc(C)c3c(N)ncnc32)cc(Cl)c(F)c1C1CNC(=O)C1 (single isomer, unassigned) [Example 347, 4-{3-[1-(4-amino-3-methyl-1H-pyrazolo[3,4-d]pyrimidin-1-yl)ethyl]-5-chloro-2-ethoxy-6-fluorophenyl}pyrrolidin-2-one]
